Test results published in patent publication US20170184604A1, “DD1ALPHA RECEPTOR AND USES THEREOF IN IMMUNE DISORDERS” (THE GENERAL HOSPITAL CORPORATION, priority 2014, published 2017).
Values belong to the molecule of their own block, whether it stands above or below them.

Assays:
MCF7 cells = assay: p53-mediated induction of checkpoint proteins (western blot); assay type: cell-based, human; conditions: 10 μM
Description: (§1) FIGS. 6A-6E show physical association of DD1α with PD1 but not with PD-L1. (FIG. 6A) Interaction of DD1α with PD1 or DD1α. […] The bound Ig fusion proteins were detected with anti-Ig-APC. Empty vector (pcDNA3.1)-transfected cells stained with Ig proteins are shown as a negative control (gray filled) and other staining is shown as black open. (FIG. 6B) DD1α binds to both DD1α and PD1 on CD4+ T cells. Purified CD4+ T cells from Wt and DD1α−/− mice were assayed for binding to Ig fused DD1α or PD1 proteins. Cells were incubated with DD1α-Ig (open), PD1-Ig (open), or control Ig proteins (gray filled) and the bound Ig fusion proteins were detected by anti-Ig-APC. […] The bound Ig fusion proteins were detected by anti-Ig-APC. Binding amounts were determined by percentage of APC positive cells compared to control Ig protein-bound cells. (FIG. 6C) Ig-pulldown experiments show DD1α interaction with both DD1α and PD1. […] The bead bound proteins were eluted and determined by western blot analysis using anti-HA antibody (asterisks). […] The bead bound proteins were eluted and detected by western blot analysis with anti-DD1α or anti-PD1 antibody (asterisk). […] The levels of indicated proteins were analyzed by western blot analysis. Total RNAs from control siRNA or p53 siRNA transfected MCF7 cells were assessed for mRNA levels of PD1 or PD-L1 by real-time quantitative PCR. […]

[1] = target: mouse DD1α on mouse cells (CD4+ and CD8+ T cells, thymocytes, bone marrow-derived macrophages) (mouse) (UniProt Q9D659); assay: cell-based or functional assay
Sequence of mouse DD1α on mouse cells (CD4+ and CD8+ T cells, thymocytes, bone marrow-derived macrophages) (mouse) (Q9D659 33-308): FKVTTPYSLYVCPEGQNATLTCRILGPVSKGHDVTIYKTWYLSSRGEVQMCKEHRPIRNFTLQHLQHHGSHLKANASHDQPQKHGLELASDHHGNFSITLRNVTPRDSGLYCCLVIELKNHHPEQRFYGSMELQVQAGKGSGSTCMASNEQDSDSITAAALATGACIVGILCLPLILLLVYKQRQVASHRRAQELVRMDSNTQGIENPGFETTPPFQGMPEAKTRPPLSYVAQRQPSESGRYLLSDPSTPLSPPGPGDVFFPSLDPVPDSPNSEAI

DD1α = assay: Ig fusion protein-pull down assay; assay type: binding, human
Description: FIGS. 6A-6E show physical association of DD1α with PD1 but not with PD-L1. (FIG. 6A) Interaction of DD1α with PD1 or DD1α. […] The bound Ig fusion proteins were detected with anti-Ig-APC. Empty vector (pcDNA3.1)-transfected cells stained with Ig proteins are shown as a negative control (gray filled) and other staining is shown as black open. (FIG. 6B) DD1α binds to both DD1α and PD1 on CD4+ T cells. Purified CD4+ T cells from Wt and DD1α−/− mice were assayed for binding to Ig fused DD1α or PD1 proteins. Cells were incubated with DD1α-Ig (open), PD1-Ig (open), or control Ig proteins (gray filled) and the bound Ig fusion proteins were detected by anti-Ig-APC. […] The bound Ig fusion proteins were detected by anti-Ig-APC. Binding amounts were determined by percentage of APC positive cells compared to control Ig protein-bound cells. (FIG. 6C) Ig-pulldown experiments show DD1α interaction with both DD1α and PD1. […] The bead bound proteins were eluted and determined by western blot analysis using anti-HA antibody (asterisks). (FIG. 6D) Ig fusion proteins (control Ig, DD1α-Ig, or PD1-Ig) were incubated with lysates from Nutlin-3-treated MCF7 cells and pulled down using protein A/G agarose. The bead bound proteins were eluted and detected by western blot analysis with anti-DD1α or anti-PD1 antibody (asterisk). (FIG. 6E) p53-mediated induction of PD1 and PD-L1. MCF7 cells were treated by Nutlin-3 (10 μM) for 1 to 3 days. MCF7 cells were transfected with control siRNA or p53 siRNA for 24 hours and treated with CPT (500 nM) or DMSO (control) for 1 and 2 days. The levels of indicated proteins were analyzed by western blot analysis. Total RNAs from control siRNA or p53 siRNA transfected MCF7 cells were assessed for mRNA levels of PD1 or PD-L1 by real-time quantitative PCR. PD1 or PD-L1 mRNA levels were normalized to 36B4 expression and shown as mean±SD (n=3). Protein levels of PD1 and PD-L1 were examined in EJ-p53tet cells in the absence or presence of tetracycline (tet), ZR75-1 cells treated with CPT (500 nM), or A375 cells exposed to 13 Gy ionizing irradiation for the indicated times.
Ig fusion proteins (control Ig, DD1α-Ig, or PD1-Ig) were incubated with lysates from Nutlin-3-treated MCF7 cells and pulled down using proten A/G agarose. The bead bound proteins were eluted and detected by western blot analysis with anti-DD1α or anti-PD1 antibody.
Based on the results that both PD-1 and DD1α receptors on T cells contribute to the co-inhibitory roles for DD1α(FIG. 5), it was tested whether DD1α could physically and functionally associate with PD-1 receptor. […] To confirm the specificity of this interaction, the inventors carried out Ig fusion protein-pull down assays using lysates from PD-1, DD1α, or TIM3-transfected 293T cells. […]

[2] = tested on: wt- or DD1α−/− mouse CD4+ T cells; assay: Ig fusion protein binding to CD4+ T cells from Wt and DD1α−/− mice
Description: as §1

[3] = tested on: Jurkat cells expressing DD1α receptor; assay: Ig fusion protein binding to Jurkat cells; conditions: several concentrations; anti-Ig-APC detection
Description: Jurkat cells overexpressing DD1alpha (transfected with DD1alpha cDNA) or control Jurkat cells were assayed for binding to Ig-fused DD1α or PD-1 proteins. Cells were incubated with several different concentrations of DD1α-Ig (left panels) or PD1-Ig (right panels), and the bound Ig fusion proteins were detected by anti-Ig-APC. Binding amounts were determined by percentage of APC positive cells.

[4] = tested on: CD4+ or CD8+ T cells from wt- or DD1α−/− mice; assay: Mouse T cell activation assay (CFSE proliferation); assay type: cell-based
Description: Enriched CD4+ and CD8+ T cells from Wt and DD1α−/− mice were stimulated, with 2.5 μg/ml anti-CD3 alone or together with DD1α-Ig or control Ig. The proliferations of CD4+ T cells (top graphs) or CD8+ T cells (bottom graphs) were determined by the percentage of CFSE-diluted CD8+ cells on day 3. The levels of cytokines (IFN-γ and TNF-α) in culture supernatant on day 2 were analyzed by ELISA. The results represent mean±SD from three experiments.
The inventors have discovered that DD1αregulates T cell activation through DD1α on T cells. […] The proliferations of CD4+ T cells were determined by percentage of CFSE-diluted CD4+ cells on day 3 and IFN-γ and levels in culture supernatants on day 2 were analyzed by ELISA. […] The proliferations of CD8+ T cells were determined by percentage of CD8+ T cells containing diluted CFSE signal on day 3. The cytokine levels in culture supernatant were analyzed by ELISA on day 2.
The amount of Ig protein was kept constant at 10 μg/ml by the addition of control Ig protein. Human CD4+ or CD8+ T cells were purified from freshly isolated PBMCs using CD4+ T Cell Isolation Kit II, human or CD8+ T Cell Isolation Kit, human (Miltenyi Biotec). Mouse CD4+ and CD8+ T cells were purified from splenocytes freshly isolated from mice using CD4+ T Cell Isolation Kit II, mouse or CD8a+ T Cell Isolation Kit II, mouse (Miltenyi Biotec). Purity was confirmed to be over 90% by flow cytometry. The T cells were labeled with 1 μM CFSE, quenched by cold FBS and incubated in the anti-CD3 & Ig proteins-coated plates. On day 2 after stimulation, supernatant was collected and cytokines were assayed by ELISA. On day 3, cells were stained with anti-CD4-APC (OKT4, eBioscience for human CD4+ T cells; RM4-5, eBioscience for mouse CD4+ T cells) or anti-CD8-APC (SK1, eBioscience for human CD8+ T cells; 53-6.7, eBioscience for mouse CD8+ T cells) and then analyzed for CFSE dilution by flow cytometry.

[5] = target: T1, DD1α-Ig fusion protein (the extracellular region of DD1α fused with the immunoglobulin G Fc segment) (human, UniProt Q9H7M9 33-194); assay: DD1α-Ig-coated beads on transfected 293T cells
T1 construct: also called DD1α-Fc fusion soluble protein; Fc-tagged soluble DD1α protein; not shown: mouse IgG-Fc region of the pCMV6-AC-FC vector (OriGene)
Description: Scale bar, 50 μm. […] Scale bar, 100 μm. […] Scale bar, 50 μm.

His-DD1α (33-194) = target: T2, His-DD1α (33-194) (human, UniProt Q9H7M9 33-194); assay: GST pull-down, anti-His immunoblot
T2 construct: not shown: His tag of the pRSET vector (Invitrogen)

Molecule: COc1ccc(C2=N[C@@H](c3ccc(Cl)cc3)[C@@H](c3ccc(Cl)cc3)N2C(=O)N2CCNC(=O)C2)c(OC(C)C)c1 [Nutlin-3]
CTLA-4 and ICOSL protein levels (MCF7 cells): did not respond
PD-1 and PD-L1 protein levels (MCF7 cells): induced

inhibition of anti-CD3-induced proliferation of DD1α-/- mouse CD4+ or CD8+ T cells [1]: 30%
inhibition of anti-CD3-induced proliferation of Wt mouse CD4+ or CD8+ T cells [1]: 50%
Molecule: DD1α-Ig as used on mouse T cells (Fc fusion)

inhibition of anti-CD3-induced proliferation of mouse CD4+ T cells [1]: 45%
reversal of PD-1-Ig-mediated inhibition in DD1α-/- CD4+ T cells [1]: 30%
Molecule: PD-1-Ig as used on mouse T cells (Fc fusion)

pull down of endogenous DD1α receptor (DD1α; lysates of Nutlin-3-treated MCF7 cells): detected
Molecule: PD-1-Ig: Recombinant human or mouse PD-1-Ig fusion protein from R&D Systems [reference compound]
pull down of DD1α (DD1α; lysates from transfected 293T cells): pulled down
binding to the surface of DD1α−/− CD4+ T cells compared with wt-CD4+ T cells [2]: significantly lower
binding to Jurkat cells expressing DD1α receptor [3]: bind
reversal of PD-1-Ig-mediated inhibition of CD4+ T cell stimulation ([4]; DD1α−/− CD4+ T cells): ~30%
inhibition of anti-CD3-induced CD4+ T cell proliferation ([4]; mouse CD4+ T cells, wt): ~45%

binding result [5]: no binding
B1: DD1α-ΔIgV (immunoglobulin V domain (aa 45-168)-deleted mutant) expressed on transfected cells (receptor)
chain: FKVATPYSLYVCQTGKDAPSNCVVYPSSSQDSENITAAALATGACIVGILCLPLILLLVYKQRQAASNRRAQELVRMDSNIQGIENPGFEASPPAQGIPEAKVRHPLSYVAQRQPSESGRHLLSEPSTPLSPPGPGDVFFPSLDPVPDSPNFEVI
notes: signal peptide 1-32 left out; also called mutant lacking the IgV domain; IgV-deleted DD1α

binding result (His-DD1α (33-194)): no binding
B2: GST-DD1α-ΔIgV (33-311, ΔIgV) (other)
chain: B1 chain
notes: also called IgV-deleted mutant; IgV-deleted DD1α (GST fusion); not shown: N-terminal GST tag and linker of pGEX-6P-1

binding result (His-DD1α (33-194)): no binding
B3: GST-DD1α (215-311), the cytoplasmic region (other)
chain: VYKQRQAASNRRAQELVRMDSNIQGIENPGFEASPPAQGIPEAKVRHPLSYVAQRQPSESGRHLLSEPSTPLSPPGPGDVFFPSLDPVPDSPNFEVI
notes: also called the cytoplasmic region of DD1α (GST fusion); not shown: glutathione S-transferase tag of the pGEX-6P-1 vector
